Measurements published in US4590270A, “2,4-diamino-[4-piperidinyl]pyrimidines useful as antibacterial agents, antimalarial agents, antitumors agents” (Hoffmann-La Roche Inc., priority 1983, dated 1986).
In brackets after ≈: the same amount, converted by molar mass. Like-named read-outs stand apart in the source and are kept apart here.

How the values were obtained:
[1] = target: dihydrofolate reductase from E. coli (Escherichia coli, UniProt P0ABQ4); experiment: inhibition of dihydrofolate reductase from E. coli; type: biochemical
[2] = tested on: Bacteroides fragilis strains; experiment: in vitro minimum inhibitory concentration against Bacteroides fragilis strains; type: cell-based
Experimental: (§1) In the case of in vitro experiments an minimum inhibitory concentration of 0.1-1.6 μg/ml has been determined for compound A against Bacteroides fragilis strains. […] In comparison to this, values of 79 and 45 μg/l, respectively, were determined for the known pyrimethamine.

P. falciparum = experiment: in vitro activity against malaria pathogen P. falciparum; type: cell-based; conditions: Plasmodium falciparum
Experimental: as §1

[3] = P. falciparum strain 13, read-out: ID50 (the source's name)
[4] = P. falciparum strain T9, read-out: ID50 (the source's name)

SMILES	IC50 [1]	MIC [2]	IC50 (P. falciparum; [3])	IC50 (P. falciparum; [4])
COc1cc(OC)cc(N2[C@@H]3CC[C@H]2C[C@H](c2cnc(N)nc2N)C3)c1 [compound A, exo-2,4-diamino-5-[8-(3,5-dimethoxyphenyl)-8-azabicyclo[3.2.1]oct-3-yl]pyrimidine]	3.3 nM	0.1 to 1.6 µg/mL (≈ 0.281 to 4.5 µM)	0.0009 µg/mL (≈ 0.00253 µM)	0.0014 µg/mL (≈ 0.00394 µM)
CCc1nc(N)nc(N)c1-c1ccc(Cl)cc1 [pyrimethamine, reference compound]	–	–	0.045 µg/mL (≈ 0.181 µM)	0.079 µg/mL (≈ 0.318 µM)
